Results reported in ChEMBL document CHEMBL1201862, “PubChem BioAssay data set” (2004).
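Test compounds were applied to cells in 96-well plates for 48 hours at 5 doses. GI50: concentration for 50% inhibition of growth.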 Active and inactive are the calls of the source. Cut-off read from the data, not from the text of the source: active = GI50 up to about 1.1 µM and inactive = higher.

Columns and labels:
Assay in all cases: NCI anticancer screen, dose series, 48 h
[1] = system: TK-10
[2] = system: UACC-62
[3] = system: ACHN
[4] = system: Hs-578T
[5] = system: SR
[6] = system: OVCAR-5
[7] = system: M14
[8] = system: SW-620
[9] = system: NCI-H460
[10] = system: SK-MEL-5
[11] = system: NCI-H23
[12] = system: HOP-62
[13] = system: COLO 205
[14] = system: OVCAR-4
[15] = system: NCI/ADR-RES
[16] = system: SK-OV-3
[17] = system: DU-145
[18] = system: SF-539
[19] = system: RPMI-8226
[20] = system: A549
[21] = system: HCT-15
[22] = system: KM12
[23] = system: MCF7
[24] = system: T47D
[25] = system: SF-295
[26] = system: UACC-257
[27] = system: MDA-MB-435
[28] = system: MDA-N
[29] = system: HCC 2998
[30] = system: OVCAR-3
[31] = system: EKVX
[32] = system: SNB-75
[33] = system: LOX IMVI
[34] = system: CAKI-1
[35] = system: 786-0
[36] = system: RXF 393
[37] = system: SF-268
[38] = system: NCI-H522
[39] = system: SN12C
[40] = system: UO-31
[41] = system: CCRF-CEM
[42] = system: NCI-H226
[43] = system: MOLT-4
[44] = system: HT-29
[45] = system: A498
[46] = system: HL-60
[47] = system: HCT-116
[48] = system: OVCAR-8
[49] = system: HOP-92
[50] = system: SNB-19
[51] = system: U-251
[52] = system: SK-MEL-2
[53] = system: BT-549
[54] = system: IGROV-1
[55] = system: MDA-MB-231
[56] = system: Malme-3M
[57] = system: SK-MEL-28
[58] = system: PC-3
[59] = system: K562

For CCCCCCCCCN1CCC(=O)C(C(=O)OC)C1 (stereo unspecified), the GI50 [1] was 16.7 µM (inactive), the GI50 [2] was 12.2 µM (inactive) and the GI50 [3] was 8.93 µM (inactive). The GI50 [4] was 17.1 µM (inactive), the GI50 [5] was 3.86 µM (inactive) and the GI50 [6] was 15.3 µM (inactive). The GI50 [7] was 15.4 µM (inactive), the GI50 [8] was 11.9 µM (inactive) and the GI50 [9] was 17.6 µM (inactive). The GI50 [10] was 14.2 µM (inactive), the GI50 [11] was 2.96 µM (inactive) and the GI50 [12] was 16.9 µM (inactive). The GI50 [13] was 15.1 µM (inactive), the GI50 [14] was 2.29 µM (inactive) and the GI50 [15] was 13.6 µM (inactive). For the same compound, the GI50 [16] was 16.4 µM (inactive), the GI50 [17] was 15.1 µM (inactive) and the GI50 [18] was 18.2 µM (inactive). The GI50 [19] was 15.6 µM (inactive), the GI50 [20] was 16.6 µM (inactive) and the GI50 [21] was 13.4 µM. The GI50 [22] was 3.08 µM (inactive), the GI50 [23] was 12.3 µM (inactive) and the GI50 [24] was 10.4 µM (inactive). For the same compound, the GI50 [25] was 17.3 µM (inactive), the GI50 [26] was 11 µM (inactive) and the GI50 [27] was 14.7 µM (inactive). The GI50 [28] was 16 µM (inactive), the GI50 [29] was 19.5 µM (inactive) and the GI50 [30] was 15.5 µM (inactive). The GI50 [31] was 15.5 µM (inactive), the GI50 [32] was 17.9 µM (inactive) and the GI50 [33] was 12.5 µM (inactive). For the same compound, the GI50 [34] was 15.6 µM (inactive), the GI50 [35] was 16.9 µM (inactive) and the GI50 [36] was 17.1 µM (inactive). The GI50 [37] was 16.3 µM (inactive), the GI50 [38] was 8.73 µM (inactive) and the GI50 [39] was 16 µM (inactive). For the same compound, the GI50 [40] was 10.3 µM (inactive), the GI50 [41] was 10.1 µM (inactive) and the GI50 [42] was 12.9 µM (inactive). The GI50 [43] was 13.6 µM (inactive), the GI50 [44] was 10.1 µM (inactive) and the GI50 [45] was 19 µM (inactive). For the same compound, the GI50 [46] was 1.53 µM (inactive), the GI50 [47] was 13.9 µM (inactive) and the GI50 [48] was 8.07 µM (inactive). The GI50 [49] was 17.7 µM (inactive).

For NC(=S)N/N=C/C1NCCC2CCCCC21 (stereo unspecified), the GI50 [50] was 0.35 µM (active), the GI50 [1] was 0.33 µM (active) and the GI50 [2] was 0.0452 µM (active). For the same compound, the GI50 [3] was 0.0134 µM (active), the GI50 [4] was 1.15 µM (inactive) and the GI50 [5] was 0.137 µM (active). For the same compound, the GI50 [6] was 0.796 µM (active), the GI50 [51] was 0.136 µM (active) and the GI50 [7] was 0.17 µM (active). The GI50 [8] was 0.568 µM (active), the GI50 [9] was 0.231 µM (active) and the GI50 [10] was 0.118 µM (active). The GI50 [11] was 0.133 µM (active), the GI50 [12] was 0.0938 µM (active) and the GI50 [52] was 0.824 µM (active). For the same compound, the GI50 [13] was 0.373 µM (active), the GI50 [14] was 1.73 µM (inactive) and the GI50 [53] was 0.834 µM (active). The GI50 [15] was 0.254 µM (active), the GI50 [16] was 0.37 µM (active) and the GI50 [17] was 0.173 µM (active). For the same compound, the GI50 [54] was 0.689 µM (active), the GI50 [18] was 0.0272 µM (active) and the GI50 [19] was 0.279 µM (active). For the same compound, the GI50 [20] was 0.262 µM (active), the GI50 [21] was 0.0895 µM and the GI50 [22] was 0.416 µM (active). For the same compound, the GI50 [23] was 0.59 µM (active), the GI50 [24] was 0.282 µM (active) and the GI50 [25] was 0.0673 µM (active). The GI50 [26] was 0.601 µM (active), the GI50 [27] was 0.414 µM (active) and the GI50 [29] was 0.108 µM (active). The GI50 [30] was 0.312 µM (active), the GI50 [31] was 0.611 µM (active) and the GI50 [32] was 24.2 µM (inactive). The GI50 [55] was 1.12 µM (active), the GI50 [33] was 0.221 µM (active) and the GI50 [34] was 0.0715 µM (active). For the same compound, the GI50 [35] was 0.138 µM (active), the GI50 [36] was 2.43 µM (inactive) and the GI50 [37] was 0.313 µM (active). The GI50 [38] was 0.318 µM (active), the GI50 [56] was 0.254 µM (active) and the GI50 [39] was 0.167 µM (active). For the same compound, the GI50 [40] was 0.34 µM (active), the GI50 [41] was 0.31 µM (active) and the GI50 [42] was 0.314 µM (active). For the same compound, the GI50 [43] was 0.257 µM (active), the GI50 [44] was 2.86 µM (inactive) and the GI50 [45] was 0.17 µM (active). The GI50 [46] was 0.291 µM (active), the GI50 [47] was 0.281 µM (active) and the GI50 [48] was 0.149 µM (active). For the same compound, the GI50 [57] was 2.38 µM (inactive), the GI50 [58] was 0.363 µM (active) and the GI50 [59] was 0.617 µM (active). The GI50 [49] was 0.0641 µM (active).

In the case of C1=C(c2ccccc2)O[C@H](COCc2ccccc2)C(OCc2ccccc2)[C@@H]1OCc1ccccc1 (stereo partly specified), the GI50 [1] is reported as > 10 µM (inactive), the GI50 [2] is reported as > 10 µM (inactive) and the GI50 [5] is reported as > 10 µM (inactive). For the same compound, the GI50 [7] was > 10 µM (inactive), the GI50 [8] was > 10 µM (inactive) and the GI50 [10] was > 10 µM (inactive). For the same compound, the GI50 [11] was > 10 µM (inactive), the GI50 [12] was > 10 µM (inactive) and the GI50 [13] was > 10 µM (inactive). The GI50 [16] was > 10 µM (inactive), the GI50 [17] was > 10 µM (inactive) and the GI50 [54] was > 10 µM (inactive). For the same compound, the GI50 [19] was > 10 µM (inactive), the GI50 [20] was > 10 µM (inactive) and the GI50 [21] was greater than 10 µM. The GI50 [22] was > 10 µM (inactive), the GI50 [23] was > 10 µM (inactive) and the GI50 [24] was > 10 µM (inactive). The GI50 [25] was > 10 µM (inactive), the GI50 [26] was > 10 µM (inactive) and the GI50 [28] was > 10 µM (inactive). For the same compound, the GI50 [29] was > 10 µM (inactive), the GI50 [31] was > 10 µM (inactive) and the GI50 [32] was > 10 µM (inactive). For the same compound, the GI50 [55] was > 10 µM (inactive), the GI50 [34] was > 10 µM (inactive) and the GI50 [35] was > 10 µM (inactive). For the same compound, the GI50 [36] was > 10 µM (inactive), the GI50 [37] was > 10 µM (inactive) and the GI50 [56] was > 10 µM (inactive). For the same compound, the GI50 [39] was > 10 µM (inactive), the GI50 [41] was > 10 µM (inactive) and the GI50 [43] was > 10 µM (inactive). For the same compound, the GI50 [44] was > 10 µM (inactive), the GI50 [46] was > 10 µM (inactive) and the GI50 [48] was > 10 µM (inactive). The GI50 [57] was > 10 µM (inactive), the GI50 [58] was > 10 µM (inactive) and the GI50 [59] was > 10 µM (inactive).

For CC1(C)[C@@H](Cn2ccc(=O)[nH]c2=O)CC[C@@]1(C)CO, the GI50 [50] was > 100 µM (inactive), the GI50 [1] was > 100 µM (inactive) and the GI50 [2] was > 100 µM (inactive). For the same compound, the GI50 [3] was > 100 µM (inactive), the GI50 [4] was > 100 µM (inactive) and the GI50 [6] was > 100 µM (inactive). For the same compound, the GI50 [51] was > 100 µM (inactive), the GI50 [7] was > 100 µM (inactive) and the GI50 [8] was > 100 µM (inactive). For the same compound, the GI50 [10] was > 100 µM (inactive), the GI50 [12] was > 100 µM (inactive) and the GI50 [52] was > 100 µM (inactive). The GI50 [13] was > 100 µM (inactive), the GI50 [14] was > 100 µM (inactive) and the GI50 [15] was > 100 µM (inactive). For the same compound, the GI50 [16] was > 100 µM (inactive), the GI50 [17] was > 100 µM (inactive) and the GI50 [20] was > 100 µM (inactive). For the same compound, the GI50 [21] was greater than 100 µM, the GI50 [22] was > 100 µM (inactive) and the GI50 [24] was > 100 µM (inactive). For the same compound, the GI50 [25] was > 100 µM (inactive), the GI50 [26] was > 100 µM (inactive) and the GI50 [27] was > 100 µM (inactive). The GI50 [28] was > 100 µM (inactive), the GI50 [29] was > 100 µM (inactive) and the GI50 [30] was 81.5 µM (inactive). The GI50 [31] was > 100 µM (inactive), the GI50 [32] was > 100 µM (inactive) and the GI50 [55] was > 100 µM (inactive). The GI50 [33] was > 100 µM (inactive), the GI50 [34] was > 100 µM (inactive) and the GI50 [35] was > 100 µM (inactive). For the same compound, the GI50 [36] was 59.2 µM (inactive), the GI50 [37] was > 100 µM (inactive) and the GI50 [39] was > 100 µM (inactive). The GI50 [40] was > 100 µM (inactive), the GI50 [41] was > 100 µM (inactive) and the GI50 [42] was > 100 µM (inactive). The GI50 [45] was > 100 µM (inactive), the GI50 [47] was > 100 µM (inactive) and the GI50 [57] was > 100 µM (inactive). For the same compound, the GI50 [58] was > 100 µM (inactive), the GI50 [59] was > 100 µM (inactive) and the GI50 [49] was > 100 µM (inactive).
